Experimental findings from BindingDB's records for doi:10.1016/j.bmcl.2010.03.092 (Takeda California, 2010) are described below.

This assay has as its target Histone deacetylase 2 (Homo sapiens) (UniProt Q92769). In words: Inhibition of human recombinant HDAC2.

The IC50 is the concentration at which inhibition is half-maximal.

Histone deacetylase 2 (Homo sapiens), sequence (Q92769 whole entry, looked up): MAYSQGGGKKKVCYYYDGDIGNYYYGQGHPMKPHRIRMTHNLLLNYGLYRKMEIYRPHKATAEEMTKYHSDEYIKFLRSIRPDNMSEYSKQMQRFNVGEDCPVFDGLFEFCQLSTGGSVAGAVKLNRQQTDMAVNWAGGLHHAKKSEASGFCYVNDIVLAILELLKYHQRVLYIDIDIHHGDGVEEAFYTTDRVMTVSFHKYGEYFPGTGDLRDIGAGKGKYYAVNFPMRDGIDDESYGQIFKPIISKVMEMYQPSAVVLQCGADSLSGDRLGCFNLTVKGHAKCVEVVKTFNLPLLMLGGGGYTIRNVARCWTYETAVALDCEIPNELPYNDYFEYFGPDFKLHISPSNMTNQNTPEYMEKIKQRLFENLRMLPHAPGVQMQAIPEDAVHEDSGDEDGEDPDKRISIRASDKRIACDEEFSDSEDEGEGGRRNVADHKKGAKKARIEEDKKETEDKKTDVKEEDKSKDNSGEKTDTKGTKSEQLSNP

`Cc1c(-c2ccccc2)nc(-c2cccc(/C=C/C(=O)NO)c2)n1CCc1ccccc1` [N-hydroxy-3-(3-(5-methyl-1-phenethyl-4-phenyl-1H-imidazol-2-yl)phenyl)acrylamide]: the concentration for half-maximal inhibition (IC50) turned out to be 5 nM.
